In one test the test system is H2228. Kind of test: Cell viability assay (CellTiter-Meiluncell Luminescent), tumor cell proliferation, H2228. The conditions noted are these: Homo sapiens, NCI-H2228, 96 h; for inhibition at 0.01 µM: read-out: Inhibition Rate at 10 nM (%); for inhibition at 0.5 µM: read-out: Inhibition Rate at 500 nM (%).
The target of the next test is T1, IKZF2 (Homo sapiens, UniProt Q96SW2+Q9UKS7).
T1 construct: effects of the compounds of the present disclosure on the expression of target proteins in cells; endogenous in cells; host or cells: human PBMCs (hPBMCs)
The experiment in a line: Western-blot assay, substrate protein degradation in hPBMCs: IKZF2. The test is classed as cell-based. The settings on record: 24 hours of compound treatment, 50 nM and 500 nM.

For a further test, the target named is T2, CK1α (Homo sapiens, UniProt P48729+Q96SW2).
T2 construct: effects of the compounds of the present disclosure on the expression of target proteins in cells; endogenous in cells; host or cells: human PBMCs (hPBMCs)
The experiment in a line: Western-blot assay, substrate protein degradation in hPBMCs: CK1α. The test is classed as cell-based. The settings on record: 24 hours of compound treatment, 50 nM and 500 nM.

The next test has as its target T3, IKZF3 (Homo sapiens, UniProt Q96SW2+Q9UKT9).
T3 construct: effects of the compounds of the present disclosure on the expression of target proteins in cells; endogenous in cells; host or cells: human PBMCs (hPBMCs)
Kind of test: Western-blot assay, substrate protein degradation in hPBMCs: IKZF3. It is filed as cell-based. The settings on record: 24 hours of compound treatment, 50 nM and 500 nM.

For another test, the target named is T4, GSPT1 (Homo sapiens, UniProt P15170+Q96SW2).
T4 construct: effects of the compounds of the present disclosure on the expression of target proteins in cells; endogenous in cells; host or cells: human PBMCs (hPBMCs)
Kind of test: Western-blot assay, substrate protein degradation in hPBMCs: GSPT1. It is filed as cell-based. The settings on record: 24 hours of compound treatment, 50 nM and 500 nM.

The test system of the next test is H292. Kind of test: Cell viability assay (CellTiter-Meiluncell Luminescent), tumor cell proliferation, H292. The settings on record: Homo sapiens, NCI-H292, 96 h; for inhibition at 0.01 µM: read-out: Inhibition Rate at 10 nM (%); for inhibition at 0.5 µM: read-out: Inhibition Rate at 500 nM (%).
A further test concerns the target T5, IKZF1 (Homo sapiens, UniProt Q13422+Q96SW2).
T5 construct: effects of the compounds of the present disclosure on the expression of target proteins in cells; endogenous in cells; host or cells: human PBMCs (hPBMCs)
Kind of test: Western-blot assay, substrate protein degradation in hPBMCs: IKZF1. It is filed as cell-based. The settings on record: 24 hours of compound treatment, 50 nM and 500 nM.

For the next test, the target named is T6, WEE1 (Homo sapiens, UniProt P30291+Q96SW2).
T6 construct: effects of the compounds of the present disclosure on the expression of target proteins in cells; endogenous in cells; host or cells: human PBMCs (hPBMCs)
The experiment in a line: Western-blot assay, substrate protein degradation in hPBMCs: WEE1. The test is classed as cell-based. The settings on record: 24 hours of compound treatment, 50 nM and 500 nM.

The test system of the next test is MDA-MB-231. Kind of test: Cell viability assay (CellTiter-Meiluncell Luminescent), tumor cell proliferation, MDA-MB-231. The conditions noted are these: Homo sapiens, MDA-MB-231, 96 h; for inhibition at 0.01 µM: read-out: Inhibition Rate at 10 nM (%); for inhibition at 0.5 µM: read-out: Inhibition Rate at 500 nM (%).
The subject of another test is MM.1S. The experiment in a line: Cell viability assay (CellTiter-Meiluncell Luminescent), tumor cell proliferation, MM.1S. The settings on record: Homo sapiens, MM1.S, 96 h; for inhibition at 0.01 µM: read-out: Inhibition Rate at 10 nM (%); for inhibition at 0.5 µM: read-out: Inhibition Rate at 500 nM (%).
A further test concerns MV-4-11. Kind of test: Cell viability assay (CellTiter-Meiluncell Luminescent), tumor cell proliferation, MV-4-11. The conditions noted are these: Homo sapiens, MV4-11, 96 h; for inhibition at 0.01 µM: read-out: Inhibition Rate at 10 nM (%); for inhibition at 0.5 µM: read-out: Inhibition Rate at 500 nM (%).

As a reminder, the inhibition is the change of the read-out against control, counted positive when it falls.

T1 sequence (Q9UKS7 whole entry): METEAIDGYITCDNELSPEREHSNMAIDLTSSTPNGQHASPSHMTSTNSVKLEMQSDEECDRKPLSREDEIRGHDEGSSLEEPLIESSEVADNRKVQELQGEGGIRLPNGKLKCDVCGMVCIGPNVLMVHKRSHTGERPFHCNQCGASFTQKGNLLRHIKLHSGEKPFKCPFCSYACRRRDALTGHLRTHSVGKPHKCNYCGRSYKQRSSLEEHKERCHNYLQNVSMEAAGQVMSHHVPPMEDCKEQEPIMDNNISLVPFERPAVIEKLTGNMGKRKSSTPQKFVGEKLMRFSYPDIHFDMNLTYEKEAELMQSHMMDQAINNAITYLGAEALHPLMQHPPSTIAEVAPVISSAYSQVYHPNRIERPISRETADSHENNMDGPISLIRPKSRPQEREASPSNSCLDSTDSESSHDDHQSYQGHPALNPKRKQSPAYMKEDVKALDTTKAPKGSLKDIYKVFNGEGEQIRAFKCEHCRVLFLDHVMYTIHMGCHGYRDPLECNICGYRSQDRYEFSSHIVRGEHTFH
T1 sequence (Q96SW2 whole entry): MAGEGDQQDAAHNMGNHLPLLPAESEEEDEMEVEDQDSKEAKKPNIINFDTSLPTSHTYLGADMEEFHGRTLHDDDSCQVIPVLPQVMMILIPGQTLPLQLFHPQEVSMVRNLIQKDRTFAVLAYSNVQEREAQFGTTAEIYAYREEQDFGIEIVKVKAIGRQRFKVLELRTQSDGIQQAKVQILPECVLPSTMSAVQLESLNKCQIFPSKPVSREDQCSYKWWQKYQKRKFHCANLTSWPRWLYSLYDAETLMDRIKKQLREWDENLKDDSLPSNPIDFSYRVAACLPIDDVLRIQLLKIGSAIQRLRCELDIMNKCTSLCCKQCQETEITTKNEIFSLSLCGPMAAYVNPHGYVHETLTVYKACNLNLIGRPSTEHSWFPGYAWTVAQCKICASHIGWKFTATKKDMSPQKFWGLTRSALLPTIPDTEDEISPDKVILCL
T1 sequence (Q16531 whole entry partner): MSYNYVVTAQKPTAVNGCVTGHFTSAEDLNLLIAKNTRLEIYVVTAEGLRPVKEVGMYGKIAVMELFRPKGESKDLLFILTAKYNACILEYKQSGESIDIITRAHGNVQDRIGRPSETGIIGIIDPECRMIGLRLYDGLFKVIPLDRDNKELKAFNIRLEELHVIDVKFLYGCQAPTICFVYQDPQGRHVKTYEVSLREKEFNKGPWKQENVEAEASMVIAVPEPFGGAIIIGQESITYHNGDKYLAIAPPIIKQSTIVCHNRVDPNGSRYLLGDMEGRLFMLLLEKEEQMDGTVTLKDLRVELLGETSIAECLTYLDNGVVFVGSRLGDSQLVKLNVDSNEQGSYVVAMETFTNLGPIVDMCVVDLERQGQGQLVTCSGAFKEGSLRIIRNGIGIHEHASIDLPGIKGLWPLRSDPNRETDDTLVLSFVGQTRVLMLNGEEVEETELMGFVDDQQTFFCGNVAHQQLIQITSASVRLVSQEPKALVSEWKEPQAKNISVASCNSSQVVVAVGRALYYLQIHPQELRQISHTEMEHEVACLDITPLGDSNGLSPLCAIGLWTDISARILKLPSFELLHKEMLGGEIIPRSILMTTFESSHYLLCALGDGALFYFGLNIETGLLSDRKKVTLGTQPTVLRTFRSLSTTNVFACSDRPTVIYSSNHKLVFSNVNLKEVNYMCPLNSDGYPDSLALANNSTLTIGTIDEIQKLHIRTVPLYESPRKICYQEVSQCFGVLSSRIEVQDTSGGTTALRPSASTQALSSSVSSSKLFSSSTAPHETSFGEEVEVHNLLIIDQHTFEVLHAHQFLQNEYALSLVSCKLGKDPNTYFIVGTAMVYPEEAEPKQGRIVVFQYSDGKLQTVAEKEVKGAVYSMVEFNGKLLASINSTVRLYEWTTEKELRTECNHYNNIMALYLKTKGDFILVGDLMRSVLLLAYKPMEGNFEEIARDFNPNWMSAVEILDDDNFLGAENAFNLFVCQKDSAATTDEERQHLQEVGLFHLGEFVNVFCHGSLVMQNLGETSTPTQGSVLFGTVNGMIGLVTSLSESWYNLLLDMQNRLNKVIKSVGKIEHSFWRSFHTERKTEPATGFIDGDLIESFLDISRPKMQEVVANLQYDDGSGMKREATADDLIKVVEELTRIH
T5 sequence (Q13422 whole entry): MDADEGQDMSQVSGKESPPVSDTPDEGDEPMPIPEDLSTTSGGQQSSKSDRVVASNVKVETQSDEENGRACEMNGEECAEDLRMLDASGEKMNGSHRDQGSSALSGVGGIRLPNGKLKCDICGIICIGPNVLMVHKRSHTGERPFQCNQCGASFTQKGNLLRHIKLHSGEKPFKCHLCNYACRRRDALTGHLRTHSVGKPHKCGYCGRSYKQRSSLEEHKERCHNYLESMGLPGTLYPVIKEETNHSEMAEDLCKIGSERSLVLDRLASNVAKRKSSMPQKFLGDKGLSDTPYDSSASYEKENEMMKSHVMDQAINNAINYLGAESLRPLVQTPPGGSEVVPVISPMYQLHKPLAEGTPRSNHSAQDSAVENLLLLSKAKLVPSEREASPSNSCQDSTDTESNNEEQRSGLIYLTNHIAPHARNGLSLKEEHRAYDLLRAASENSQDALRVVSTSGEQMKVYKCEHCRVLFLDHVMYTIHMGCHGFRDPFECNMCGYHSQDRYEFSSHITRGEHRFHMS
T5 sequence (Q96SW2 whole entry): as the sequence (Q96SW2 whole entry) above
T5 sequence (Q16531 whole entry partner): as the sequence (Q16531 whole entry partner) above
T4 sequence (P15170 whole entry): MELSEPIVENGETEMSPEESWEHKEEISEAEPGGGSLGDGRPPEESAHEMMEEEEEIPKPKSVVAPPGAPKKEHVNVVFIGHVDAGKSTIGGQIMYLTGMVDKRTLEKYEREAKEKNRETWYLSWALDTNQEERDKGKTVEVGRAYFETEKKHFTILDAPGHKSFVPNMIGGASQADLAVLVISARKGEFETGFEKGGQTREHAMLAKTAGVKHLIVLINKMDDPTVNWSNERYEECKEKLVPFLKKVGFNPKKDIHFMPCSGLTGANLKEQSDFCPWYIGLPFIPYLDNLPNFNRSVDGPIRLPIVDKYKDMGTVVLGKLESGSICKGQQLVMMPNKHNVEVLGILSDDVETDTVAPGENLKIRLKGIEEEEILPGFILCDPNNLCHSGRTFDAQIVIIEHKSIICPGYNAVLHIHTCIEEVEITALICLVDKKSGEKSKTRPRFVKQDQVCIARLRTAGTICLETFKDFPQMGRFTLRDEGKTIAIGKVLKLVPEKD
T4 sequence (Q96SW2 whole entry): as the sequence (Q96SW2 whole entry) above
T4 sequence (Q16531 whole entry partner): as the sequence (Q16531 whole entry partner) above
T6 sequence (P30291 whole entry): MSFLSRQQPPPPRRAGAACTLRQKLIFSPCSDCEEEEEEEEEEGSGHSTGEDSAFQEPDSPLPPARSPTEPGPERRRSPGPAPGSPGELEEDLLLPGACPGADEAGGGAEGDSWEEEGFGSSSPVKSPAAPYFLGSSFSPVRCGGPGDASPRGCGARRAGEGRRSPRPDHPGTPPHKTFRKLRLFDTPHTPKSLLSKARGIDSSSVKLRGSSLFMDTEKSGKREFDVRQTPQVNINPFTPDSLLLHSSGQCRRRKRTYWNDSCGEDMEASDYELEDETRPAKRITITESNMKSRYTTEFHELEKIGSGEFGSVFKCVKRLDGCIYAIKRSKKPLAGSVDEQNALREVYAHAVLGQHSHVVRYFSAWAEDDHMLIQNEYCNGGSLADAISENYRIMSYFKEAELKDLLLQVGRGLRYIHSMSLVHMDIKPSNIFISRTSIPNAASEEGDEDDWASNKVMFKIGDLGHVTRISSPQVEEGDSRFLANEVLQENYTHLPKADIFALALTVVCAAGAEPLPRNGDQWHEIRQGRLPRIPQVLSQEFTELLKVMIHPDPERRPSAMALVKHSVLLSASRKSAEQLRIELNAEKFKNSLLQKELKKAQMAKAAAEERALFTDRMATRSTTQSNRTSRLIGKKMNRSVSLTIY
T6 sequence (Q96SW2 whole entry): as the sequence (Q96SW2 whole entry) above
T6 sequence (Q16531 whole entry partner): as the sequence (Q16531 whole entry partner) above
T2 sequence (P48729 whole entry): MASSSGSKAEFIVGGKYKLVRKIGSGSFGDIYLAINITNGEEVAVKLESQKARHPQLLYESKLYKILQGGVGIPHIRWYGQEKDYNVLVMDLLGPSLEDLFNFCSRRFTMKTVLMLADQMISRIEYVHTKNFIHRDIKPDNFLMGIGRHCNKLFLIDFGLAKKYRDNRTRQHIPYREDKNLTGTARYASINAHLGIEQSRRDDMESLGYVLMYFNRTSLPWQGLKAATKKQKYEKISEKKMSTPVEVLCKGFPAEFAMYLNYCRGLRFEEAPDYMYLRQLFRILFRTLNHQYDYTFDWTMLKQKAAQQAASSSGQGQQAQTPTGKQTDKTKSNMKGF
T2 sequence (Q96SW2 whole entry): as the sequence (Q96SW2 whole entry) above
T2 sequence (Q16531 whole entry partner): as the sequence (Q16531 whole entry partner) above
Protocol for H292: (§1) The tumor cells used herein were cultured in a cell culture medium listed in table 2 at 37°C in an incubator with 5% CO2. Prior to experimentation, all cell lines used were correctly identified by STR profiling, and tested negative for mycoplasma contamination using a mycoplasma detection kit through routine screenings.
(§2) On the following day, the test compounds of the present disclosure were subjected to serial dilution. […] Subsequently, 0.5 µL of the test compound dilution was transferred into the 96-well plate containing the cells, with each well containing 100 µL of cell culture medium. […] Into the 96-well plate, the diluted test compounds and corresponding detection reagents were added, resulting in final test compound concentrations of 500 nM and 10 nM, respectively. The experimental procedure is described below using the diluted 2 µM test compound as an example.
(§3) After the cells were treated with the compounds of the present disclosure for a specified period, the cell viability assay reagent was added to the culture medium according to the kit's instructions to determine cell viability. […] All controls were treated using the same procedure as the compounds of the present disclosure. The growth inhibition curves for the compounds of the present disclosure were plotted using Prism GraphPad software, and the IC50 values were calculated therefrom.
Protocol for MDA-MB-231: as §1, §2, §3

For the molecule `Cc1sc2ncnc(N3CCCN(Cc4ccc5c(c4)CN(N4CCC(=O)NC4=O)C5=O)CC3)c2c1C` [GT-08062, 1-(5-((4-(5,6-dimethylthieno[2,3-d]pyrimidin-4-yl)-1,4-diazepan-1-yl)methyl)-1-oxoisoindolin-2-yl)dihydropyrimidine-2,4(1H,3H)-dione], the inhibition at 0.01 µM in the test on H2228 is 25 to 30%; with H292, 20 to 40%; in the test with MDA-MB-231, 15 to 18%; in the test on MM.1S it was 30 to 42%. Also, the inhibition at 0.5 µM with H2228 lay within 30 to 40%; in the test with H292, 40 to 60%; in the test with MDA-MB-231, 25 to 40%; with MM.1S, 30 to 42%. Further, on IKZF2, the “substrate protein remaining % IKZF2” value is “A (0% ≤ substrate protein remaining % ≤ 80%)”. Further, the “substrate protein remaining % CK1α” value at CK1α is reported as “B (80%< substrate protein remaining %≤ 100%)”. Besides, the “substrate protein remaining % IKZF3” value at IKZF3 is given as “A (0% ≤ substrate protein remaining % ≤ 80%)”. The “substrate protein remaining % GSPT1” value at GSPT1 was “B (80%< substrate protein remaining %≤ 100%)”. Moreover, the “substrate protein remaining % IKZF1” value at IKZF1 was “B (80%< substrate protein remaining %≤ 100%)”. The “substrate protein remaining % WEE1” value on WEE1 is on record as “B (80%< substrate protein remaining %≤ 100%)”.

Turning to `O=C1CCN(N2Cc3cc(CN4CCC(c5ncnc6sccc56)CC4)ccc3C2=O)C(=O)N1` [GT-08082, 1-(1-oxo-5-((4-(thieno[2,3-d]pyrimidin-4-yl)piperidin-1-yl)methyl)isoindolin-2-yl)dihydropyrimidine-2,4(1H,3H)-dione], the inhibition at 0.01 µM is 40 to 60% with MV-4-11, 25 to 30% in the test with H2228, 20 to 40% in the test with H292 and 25 to 40% with MDA-MB-231. The inhibition at 0.5 µM with MV-4-11 lay within 40 to 60%; in the test with H2228 it was 20 to 25%; in the test with H292, 20 to 40%; in the test on MDA-MB-231, 18 to 25%. In addition, the “substrate protein remaining % IKZF2” value on IKZF2 was “B (80%< substrate protein remaining %≤ 100%)”. The “substrate protein remaining % CK1α” value at CK1α was “A (0% ≤ substrate protein remaining % ≤ 80%)”. Besides, the “substrate protein remaining % IKZF3” value at IKZF3 is “B (80%< substrate protein remaining %≤ 100%)”. Besides, on GSPT1, the “substrate protein remaining % GSPT1” value is given as “A (0% ≤ substrate protein remaining % ≤ 80%)”. Moreover, on IKZF1, the “substrate protein remaining % IKZF1” value is recorded as “B (80%< substrate protein remaining %≤ 100%)”. For the same molecule, the “substrate protein remaining % WEE1” value at WEE1 was “A (0% ≤ substrate protein remaining % ≤ 80%)”.

As for `Cc1sc2ncnc(C3CCN(Cc4ccc5c(c4)CN(N4CCC(=O)NC4=O)C5=O)CC3)c2c1C` [GT-08084, 1-(5-((4-(5,6-dimethylthieno[2,3-d]pyrimidin-4-yl)piperidin-1-yl)methyl)-1-oxoisoindolin-2-yl)dihydropyrimidine-2,4(1H,3H)-dione], the inhibition at 0.01 µM lay within 18 to 25% with MV-4-11, 10 to 15% in the test with H2228, 1 to 5% in the test with H292 and 5 to 10% with MDA-MB-231. The inhibition at 0.5 µM was in the range of 10 to 18% with MV-4-11, 25 to 30% in the test with H2228, 10 to 15% in the test with H292 and 18 to 25% in the test with MDA-MB-231. Besides, the “substrate protein remaining % IKZF2” value on IKZF2 was “B (80%< substrate protein remaining %≤ 100%)”. Moreover, on CK1α, the “substrate protein remaining % CK1α” value was “A (0% ≤ substrate protein remaining % ≤ 80%)”. Also, at IKZF3, the “substrate protein remaining % IKZF3” value is “B (80%< substrate protein remaining %≤ 100%)”. Further, at GSPT1, the “substrate protein remaining % GSPT1” value was “A (0% ≤ substrate protein remaining % ≤ 80%)”. The “substrate protein remaining % IKZF1” value at IKZF1 was “B (80%< substrate protein remaining %≤ 100%)”. Moreover, at WEE1, the “substrate protein remaining % WEE1” value is given as “B (80%< substrate protein remaining %≤ 100%)”.

Turning to `O=C1CCN(N2C(=O)c3ccc(CN4CCN(c5ncnc6sc(Br)cc56)CC4)cc3C2=O)C(=O)N1` [GT-08096, 5-((4-(6-bromothieno[2,3-d]pyrimidin-4-yl)piperazin-1-yl)methyl)-2-(2,4-dioxotetrahydropyrimidin-1(2H)-yl)isoindoline-1,3-dione], the inhibition at 0.01 µM with MV-4-11 fell in the range of 30 to 40%; in the test with H2228 it was 30 to 40%; with H292 it was 40 to 60%; in the test on MDA-MB-231 it was 25 to 40%. Also, the inhibition at 0.5 µM in the test on MV-4-11 fell in the range of 30 to 40%; in the test with H2228, 20 to 25%; in the test with H292, 20 to 40%; in the test with MDA-MB-231, 18 to 25%. In addition, at IKZF2, the “substrate protein remaining % IKZF2” value was “B (80%< substrate protein remaining %≤ 100%)”. The “substrate protein remaining % CK1α” value on CK1α is on record as “A (0% ≤ substrate protein remaining % ≤ 80%)”. In addition, the “substrate protein remaining % IKZF3” value on IKZF3 is “B (80%< substrate protein remaining %≤ 100%)”. The “substrate protein remaining % GSPT1” value on GSPT1 is “A (0% ≤ substrate protein remaining % ≤ 80%)”. In addition, the “substrate protein remaining % IKZF1” value on IKZF1 is “B (80%< substrate protein remaining %≤ 100%)”. Further, the “substrate protein remaining % WEE1” value at WEE1 is on record as “A (0% ≤ substrate protein remaining % ≤ 80%)”.

`Cc1nc(N2CCN(Cc3ccc4c(c3)C(=O)N(N3CCC(=O)NC3=O)C4=O)CC2)c2c(-c3ccccc3)csc2n1` [GT-08099, 2-(2,4-dioxotetrahydropyrimidin-1(2H)-yl)-5-((4-(2-methyl-5-phenylthieno[2,3-d]pyrimidin-4-yl)piperazin-1-yl)methyl)isoindoline-1,3-dione]: the inhibition at 0.01 µM in the test on MV-4-11 lay within 25 to 30%; in the test on H2228, 25 to 30%; in the test with H292 it was 20 to 40%; with MDA-MB-231, 18 to 25%. The inhibition at 0.5 µM lay in the range of 5 to 10% with MV-4-11, 30 to 40% in the test on H2228, 20 to 40% in the test with H292 and 25 to 40% with MDA-MB-231. For the same molecule, on IKZF2, the “substrate protein remaining % IKZF2” value was “B (80%< substrate protein remaining %≤ 100%)”. In addition, the “substrate protein remaining % CK1α” value on CK1α is listed as “B (80%< substrate protein remaining %≤ 100%)”. Also, the “substrate protein remaining % IKZF3” value at IKZF3 is on record as “B (80%< substrate protein remaining %≤ 100%)”. Moreover, the “substrate protein remaining % GSPT1” value at GSPT1 is recorded as “A (0% ≤ substrate protein remaining % ≤ 80%)”. For the same molecule, at IKZF1, the “substrate protein remaining % IKZF1” value is “B (80%< substrate protein remaining %≤ 100%)”. Further, the “substrate protein remaining % WEE1” value on WEE1 is “B (80%< substrate protein remaining %≤ 100%)”.

Regarding `O=C1CCN(N2C(=O)c3ccc(CN4CCN(c5ncnc6sc7c(c56)CCCC7)CC4)cc3C2=O)C(=O)N1` [GT-08102, 2-(2,4-dioxotetrahydropyrimidin-1(2H)-yl)-5-((4-(5,6,7,8-tetrahydrobenzo[4,5]thieno[2,3-d]pyrimidin-4-yl)piperazin-1-yl)methyl)isoindoline-1,3-dione], the inhibition at 0.01 µM in the test with MV-4-11 lay within 40 to 60%; with H2228, 20 to 25%; in the test on MM.1S, 30 to 42%. For the same molecule, the inhibition at 0.5 µM is 40 to 60% in the test on MV-4-11, 20 to 25% with H2228 and 30 to 42% in the test with MM.1S.

On to `O=C1CCN(N2Cc3cc(CN4CCC(c5ncnc6sc7c(c56)CCC7)CC4)ccc3C2=O)C(=O)N1` [GT-08113, 1-(5-((4-(6,7-dihydro-5H-cyclopenta[4,5]thieno[2,3-d]pyrimidin-4-yl)piperidin-1-yl)methyl)-1-oxoisoindolin-2-yl)dihydropyrimidine-2,4(1H,3H)-dione], for which the inhibition at 0.01 µM in the test on MV-4-11 is 30 to 40%; in the test on H2228, 20 to 25%; in the test with H292, 20 to 40%; with MDA-MB-231, 25 to 40%. The inhibition at 0.5 µM is 10 to 18% with MV-4-11, 25 to 30% in the test on H2228, 20 to 40% in the test on H292 and 40 to 60% in the test with MDA-MB-231. Besides, on IKZF2, the “substrate protein remaining % IKZF2” value is on record as “B (80%< substrate protein remaining %≤ 100%)”. The “substrate protein remaining % CK1α” value at CK1α was “A (0% ≤ substrate protein remaining % ≤ 80%)”. Further, the “substrate protein remaining % IKZF3” value on IKZF3 was “B (80%< substrate protein remaining %≤ 100%)”. The “substrate protein remaining % GSPT1” value at GSPT1 is recorded as “A (0% ≤ substrate protein remaining % ≤ 80%)”. Besides, the “substrate protein remaining % IKZF1” value on IKZF1 is “B (80%< substrate protein remaining %≤ 100%)”. The “substrate protein remaining % WEE1” value on WEE1 is “B (80%< substrate protein remaining %≤ 100%)”.

The values are drawn from patent publication EP4722207A1, “OXOISOINDOLINYL-SUBSTITUTED TETRAHYDROPYRIMIDINEDIONE DERIVATIVE AND USE THEREOF” (Gluetacs Therapeutics (Shanghai) Co., Ltd., priority 2023, dated 2024).
